Reference: patent publication US10583109B2, “Use of silver(I) complexes as anticancer agents” (University of Johannesburg, priority 2012, dated 2020)
Entries after “also recorded” stand apart in the source; their conditions may differ.

Legend:
[1] = test system: MCF-7 breast cancer cells; test: Morphological features of MCF-7 cells by inverse light microscopy; assay type: cell-based, human; settings: 10 μM, 24 hours after treatment, compared to 100 μM Cisplatin apoptotic control
Protocol: The morphological features of MCF-7 cells following differential treatments were evaluated by inverse light microscopy as depicted in FIG. 4. Untreated cells served as the control, while 1% DMSO served as the solvent control and 100 μM Cisplatin indicates apoptotic cells. Cells were exposed to 10 μM of complexes (1)-(5). Morphological changes of the cell indicative of apoptosis include cell shrinkage and blebbing.
In the light of the decreased viability, the morphology of the cells was studied 24 hours after treatment with 10 μM of complexes (1), (2), (3), (4) and (5) to determine if apoptotic or necrotic features were present. The morphology of the cells was compared to the apoptotic control treated with 100 μM Cisplatin (FIG. 4).

Caspase-3/7 = test: Caspase-Glo 3/7 assay in SNO-oesophageal cancer cells; assay type: cell-based; set-up: increase in Caspase-3/7 expression: unit not given here; settings: 10 μM, 24 hours treatment
Protocol: The Caspase-Glo®3/7 assay was used to confirm that the structural changes observed are due to apoptotic cell death. In this luminescent based assay, a 1:1 ratio of the Caspase-Glo® reagent was added to treated cells into a microtiter plate. The plate was gently agitated for 30 seconds and incubated for 30 minutes at room temperature. The whole luminescent intensity was measured using a Synergy HT Multi-Detection Microplate reader, where the intensity of the luminescence is proportional to the Caspase-3/7 concentration.
The error bars where constructed based on the standard error of the mean (SEM) where n=6. The significant difference were calculated with respect to the vehicle control (P<**0.001). A relative increase in expression was observed throughout.

A-549 lung cancer cells [2] = test: AlamarBlue viability and proliferation assay of A-549 lung cancer cells; assay type: cell-based; settings: 2.5 μM, 24 h
Protocol: A-549 lung cancer cells were maintained in DMEM supplemented with 10% fetal calf serum (FCS), 1 mM pyruvate, 2 mM L-glutamine (Highveld Biological, Kelvin, RSA), 1% antibiotics (penicillin, streptomycin, amphotericin (Highveld Biological, Kelvin, RSA) and gentamycin (Invitrogen Life Technologies, Eugene, Oreg.)).
Cells (1×10^4 cells/well) were plated in 96-well flat-bottomed plates and incubated for 24 h at 37° C. with 5% CO2. All compounds were preheated for 30 min prior treatment. After 24 h compounds (2.5 μM) were mixed with supplemented media and incubated for 24 h. For the untreated control supplemented media was used. Since all compounds were dissolved in DMSO, a 1% DMSO was used as a vehicle control.
The A-549 lung cancer cells were incubated at 37° C. for 3 h in the presence of 10% AlamarBlue® viability and proliferation assay (Invitrogen Life Technologies, Eugene, Oreg.). […] Fluorescence was measured at 530-560 nm (excitation) and 590 nm (emission).
FIG. 27 is a bar chart showing percentage cellular viability of fibroblast cells and A-549 lung cancer cells treated with various molar ratios (complexes (6)-(9)) using the AlamarBlue® cell viability assay whereby the molar ratio of the silver(I) nitrate salt: phosphine ligand of 1:1, 1:2, 1:3 and 1:4 was assessed. Fluorescence was measured with 530 nm excitation wavelength and 590 nm emission wavelength. […]

A-549 lung cancer cells [3] = test: Morphological features of A-549 lung cancer cells by inverse light microscopy; assay type: cell-based; settings: A-549 cells
Protocol: Morphological studies were conducted using a Zeiss Axiovert 25 Inverted Light Microscope [Carl Zeiss, Germany] with photographs taken with an Axio Cam Camera and Axio Vision 3.1 software [Carl Zeiss, Germany] at 100× magnification.
Morphological features of A-549 lung cancer cells evaluated by inverse light microscopy following differential treatments are indicated in FIG. 28: (A)=Untreated Negative Control; (B)=1% DMSO Vehicle Control (VC); (C)=100 μM Cisplatin (CDDP) Positive Apoptotic Control; (D)=Hydrogen Peroxide Positive Necrotic Control; (E)=complex (6) having a molar ratio of 1:1; (F)=Triphenylphosphine Ligand; (G)=complex (9) having a molar ratio of 1:4. Cells were visualised with Zeiss Axiovert 25 Inverted Light Microscope with photographs taken at 100× magnification. Morphology of A-549 lung cancer cells after differential treatments resembled that of the positive apoptotic control with characteristic apoptotic cellular morphology such as blebbing, rounding and cell shrinkage being observed.

[4] = test system: peripheral blood mononucleocytes (PBMCs); test: Trypan blue viability assay of PBMCs (non-cancerous cells); assay type: cell-based; settings: PBMCs from a healthy donor
Source text: To evaluate the relative toxicity on non-tumorigenic tissues, the ideal is to compare the effect of the compounds to a similar cell line that is non-cancerous. The Applicant is currently in the process of purchasing these cell lines and will evaluate the toxicity of the compounds in the near future. However, the Applicant did evaluate the effect of the complexes of the instant invention on peripheral blood mononucleocytes (PBMCs) isolated from fresh whole blood samples from a healthy donor. This already gives a good indication of the potential toxicity of complexes (1)-(5) in an in vivo environment.
The percentage viability of differentially treated PBMCs (peripheral blood mononucleocytes) for complexes (1)-(5) was determined by the Trypan blue viability assay, as shown in FIG. 10. Cells were treated with complexes (1)-(5). Cells treated with 0.1% DMSO and 100 μM Cisplatin were used as a vehicle and apoptotic control respectively. The SEM is indicated as error bars (n=2).

C1#[N+][Ag]([P+](c2ccccc2)(c2ccccc2)c2ccccc2)([P+](c2ccccc2)(c2ccccc2)c2ccccc2)[S]C#[N+][Ag]([P+](c2ccccc2)(c2ccccc2)c2ccccc2)([P+](c2ccccc2)(c2ccccc2)c2ccccc2)[S]1 [complex (1), [AgSCN(PPh3)2]2]
cell morphology (apoptotic or necrotic features) [1]: morphology characteristic of necrosis

c1ccc([P+](c2ccccc2)(c2ccccc2)[Ag+]([P+](c2ccccc2)(c2ccccc2)c2ccccc2)([P+](c2ccccc2)(c2ccccc2)c2ccccc2)[P+](c2ccccc2)(c2ccccc2)c2ccccc2)cc1 [complex (9), AgNO3(PPh3)4]
increase in Caspase-3/7 expression (Caspase-3/7): 2.74
toxicity to A-549 lung cancer cells (A-549 lung cancer cells [2]): higher toxicity level
signs of apoptosis (morphology) (A-549 lung cancer cells [3]): more effective

[AgSCN{P(4-FC6H4)3}2]2 [complex (3)]
toxicity on PBMCs (decrease in viability) [4]: much lower degree of toxicity; also recorded: significantly lower degree of toxicity
